In patent US12648565B2, “Post-emergence herbicide” (Belvedere Foliar LLC, priority 2017, dated 2026):
Where two headings read alike, the source gives them in different places.

What was measured:
[1] = tested on: broadleaf (dicotyledonous) species (Antirrhinum majus, Cineraria meritima); assay: Trial 41: greenhouse foliar spray trial, dicots, visual toxicity scoring; type: in vivo; conditions: solutions “B”, 2.0M; Plant 3 and 10; by test conclusion at Day 23
Description: (§1) FIG. 5 depicts the average toxicity scores for the four plants tested in Trial 41, which tested an embodiment of an herbicide composition and method of using the same. The plants were numbered 22, 2, 3, and 10, corresponding to mixed monocotyledonous and dicotyledonous Pasture Blend 2 and Allium cepa (Onion “Torpedo Red”), and dicotyledonous Antirrhinum majus (Snapdragon) and Cineraria meritima (Dusty Miller, “Silver Dust” (Refer to Tables 4A and 4B for plant species identification). Both of the samples S-1 and S-2 were solutions of 2.0 Molar of ammonium sulfate having a pH of 5.5. (Refer to Tables 6A and 6B for trial solutions, details and results). Results of Trial 41: For broadleaf (dicotyledonous) species of Sample S-1 at 2.0 Molar concentration, excellent phytotoxic effects from 4.0 to 5.0 (“severe-to-fatal”) resulted from Day 3 through trial conclusion at Day 23. For monocotyledonous grass and liliaceae species of Sample S-2 at 2.0 Molar concentration, an initial moderate effect of 3.0 had decreased to 2.3 (“slight”). […] Dicots included in the Pasture 2 samples of S-1 and S-2 were all dead by Day 7. However, separate toxicity results for the monocots and dicots present in the Pasture Blend 2 mix were not recorded, and are not presented in FIG. 5.
(§2) In Trial 41, the herbicide comprised Ammonium sulfate […]; molarity 2.0; unadjusted pH approx. 5.5. […]

weeds growing in soil = type: in vivo
[2] = tested on: monocotyledonous grass and liliaceae species (Pasture Blend 2, Allium cepa); assay: Trial 41: greenhouse foliar spray trial, monocots, visual toxicity scoring; type: in vivo, grasses of pasture seed blend; conditions: 2.0M; Plants P-2 and 2
Description: as §1, §2

[3] = tested on: Pasture Blend 1, Calendula officinalis (Common marigold), Cineraria meritima (Dusty miller) (plants 21, 7, 10); assay: Trial 13: greenhouse foliar spray trial, visual toxicity scoring; type: in vivo; conditions: Day 11
Description: (§3) The majority of greenhouse trials conducted to date have been of one basic design: • 1. Samples of different species of flowering plant and grass are exposed to different formulations of the herbicide in accordance with some embodiments, prepared in a range of concentrations, in combination with potentially suitable adjuvants, and applied as an aquatic spray. Experimental plants are purchased either from a local nursery, grown from ornamental and weed seed packs, or grown from seeds of a custom blend prepared specifically for this project and listed in Table 4B. The experimental variable in a typical test is the molar mass concentration of the nutrient salt being examined. Other factors including pH, nitrogen source, and the amount and composition of surfactant or penetrant are constants within a trial except when one of these factors is itself the variable of interest in the experiment. Experiments are controlled unless irrelevant for a particular test. • 2. […] Plants are sprayed with the experimental formulation, always in late afternoon (greenhouse tests), or in early morning (field tests), are observed over as many as several weeks, and their visible state of decline scored by the same examiner on a 9 points system relying on visual effects of toxicity. […]

[4] = tested on: broadleaf (dicot) samples: Brassica oleracea (Kale), Dichondra repens, Fragraia x ananassa (Strawberry); assay: Trial 46: greenhouse foliar spray trial, broadleaf (dicot) samples, visual toxicity scoring; type: in vivo, Fragaria x ananassa
Description: (§4) FIG. 9 is a graph showing the average toxicity scores for the […] plants tested in Trial 46, which tested an embodiment of an herbicide composition and method of using the same. The plants were numbered P2, 5, 11A, and 13, corresponding to Pasture Blend 2, Brassica oleracea (Kale), Dichondra repens, Fragraia x ananassa Strawberry (Refer to Tables 4A and 4B for plant species identification). Solutions S-1 and S-2 correspond to solutions of Monopotassium phosphate (KH2PO4) at concentrations of 2.0 molarity (Solution 1) and 1.5 molarity (Solution 2). […] The adjuvants in Trial 46 were […] silicone surfactant and methylated seed oil (MSO).
(§5) The majority of greenhouse trials conducted to date have been of one basic design: • 1. Samples of different species of flowering plant and grass are exposed to different formulations of the herbicide in accordance with some embodiments, prepared in a range of concentrations, in combination with potentially suitable adjuvants, and applied as an aquatic spray. […] Plants are sprayed with the experimental formulation, always in late afternoon (greenhouse tests), or in early morning (field tests), are observed over as many as several weeks, and their visible state of decline scored by the same examiner on a 9 points system relying on visual effects of toxicity. […]

[5] = tested on: the three grasses in P-2 (Pasture Blend 2); assay: Trial 46: greenhouse foliar spray trial, grasses, visual toxicity scoring; type: in vivo, Lolium perenne, Dactylis glomerata, Festuca arundinacea; conditions: Day 8 through Day 18
Description: as §4, §5

plants = assay: Example 13: micronutrient salt composition applied to plants as in Example 1, toxicity scoring; type: in vivo; conditions: after a period of 3-30 days
Protocol: Toxicity scoring is performed as described in Table 7.

[6] = tested on: Pasture Blend 2, Allium cepa (Onion), Cineraria maritima (Dusty miller), Antirrhinum majus (Snapdragon); assay: Trial 44: greenhouse foliar spray trial, visual toxicity scoring; type: in vivo
Description: The majority of greenhouse trials conducted to date have been of one basic design: • 1. Samples of different species of flowering plant and grass are exposed to different formulations of the herbicide in accordance with some embodiments, prepared in a range of concentrations, in combination with potentially suitable adjuvants, and applied as an aquatic spray. Experimental plants are purchased either from a local nursery, grown from ornamental and weed seed packs, or grown from seeds of a custom blend prepared specifically for this project and listed in Table 4B. The experimental variable in a typical test is the molar mass concentration of the nutrient salt being examined. Other factors including pH, nitrogen source, and the amount and composition of surfactant or penetrant are constants within a trial except when one of these factors is itself the variable of interest in the experiment. Experiments are controlled unless irrelevant for a particular test. • 2. Standard techniques to reduce experimental error are employed including use of controls; standard spray application pressures; standardized growing conditions, growing medium, containers, and source irrigation water; and preparation and shipping of samples for laboratory analysis according to required standard laboratory protocols. • 3. Plants are sprayed with the experimental formulation, always in late afternoon (greenhouse tests), or in early morning (field tests), are observed over as many as several weeks, and their visible state of decline scored by the same examiner on a 9 points system relying on visual effects of toxicity. (Table 5.)
Scores of half-value are also used: 0, 0.5, 1.0, 1.5, 2.0, 2.5, etc. • 4. The estimated successful herbicidal effectiveness of a formulation was determined from a combination of averaged and cumulative scores of 4.0 to 5.0 observed approximately 14 days or longer after application: “All leaves and flowers if present desiccated, browned, wilted, and stems or blades lodged; no green tissue visible; no regrowth from roots visible.”
S-1 corresponds to the highest concentration of active nutrient tested, S-3 corresponds to the lowest concentration of nutrient tested and S-2 represents an intermediate level.

[7] = tested on: the grass species in the trial; assay: Trial 64: greenhouse foliar spray trial, grass species; type: in vivo, grasses of pasture seed blend; conditions: 0.5 molarity; Days 12 through 34
Description: as §3

[8] = tested on: all broadleaf species in the trial; assay: Trial 64: greenhouse foliar spray trial, broadleaf species; type: in vivo; conditions: 0.5 molarity; Days 12 through 34
Description: as §3

Q: What does the source list for `N.N.O=S(=O)(O)O` [Ammonium sulfate]?
A: toxicity level (in words) [1]: severe-to-fatal; herbicidal effects on the weed plants (weeds growing in soil; aqueous solution with citric acid and a surfactant, sprayed): has herbicidal effects; responsiveness (in words) [2]: considerably less responsive

Q: How did the average toxicity score ([3]; 1.0M) turn out when `O=C([O-])CC(O)(CC(=O)[O-])C(=O)[O-].[K+].[K+].[K+]` [K-citrate, potassium citrate] was run?
A: Its average toxicity score is 4.0.

Q: And the average toxicity score ([3]; […])?
A: The average toxicity score was 4.3.

Q: With `O=P([O-])(O)O.[K+]` [Mono-potassium phosphate] as the compound, how does the “phytotoxic effect (in words)” value ([4]; 1.0M solution (so in the source), Days 8 through 18) read?
A: The value was “severe-to-fatal”.

Q: What about the “phytotoxic effect (in words)” value ([4]; 2.0 molar test solution, Day 8 through Day 18, broadleaf samples (dicots)) of the same compound?
A: The value was “Severe-to-fatal”.

Q: And the “phytotoxic effect (in words)” value ([5]; 1.5 molar test solution)?
A: Its value is “minimal effect”.

Q: What about the “phytotoxic effect (in words)” value ([5]; 2.0 molar test solution) of the same compound?
A: The value was “minimal effect”.

Q: With `O.O=S(=O)([O-])[O-].[Zn+2]` [Zn sulfate monohydrate] as the compound, how does the plant death (plants) read?
A: The plant death was “plant death is observed”.

Q: How did the average toxicity score ([6]; 1.0M, first of three values for “Days 521 through 32”) turn out when `O=S(=O)([O-])[O-].[Zn+2]` [ZnSO4, Zinc Sulfate] was run?
A: Its average toxicity score is 4.3.

Q: What about the average toxicity score ([6]; 1.0M, second of three values for “Days 521 through 32”) of the same compound?
A: Its average toxicity score is 4.4.

Q: And the average toxicity score ([6]; 1.0M, third of three values for “Days 521 through 32”)?
A: The average toxicity score was 4.2.

Q: What about the average toxicity score ([6]; 1.0 molar solution, Day 21 through Day 32) of the same compound?
A: The average toxicity score was “approximately 4.5”.

Q: What about the average toxicity score ([6]; 2.0 molar solution, Day 9) of the same compound?
A: Its average toxicity score is 3.9.

Q: How did the “herbicidal effects on the weed plants” value (weeds growing in soil; in vivo) turn out when `O=[N+]([O-])[O-].O=[N+]([O-])[O-].[Ca+2]` [calcium nitrate] was run?
A: Its value is “has herbicidal effects”.

Q: With `O.O.O.O.O=BOB1OB(OB=O)OB2OB([O-])OB([O-])OB(O1)O2.[Na+].[Na+]` [disodium octaborate tetrahydrate] as the compound, how does the “phytotoxic control (in words)” value [7] read?
A: Its value is “Partial control”.

Q: What about the “phytotoxic control (in words)” value [8] of the same compound?
A: The value was “Excellent phytotoxic control”.

Q: For `O=[N+]([O-])[O-].O=[N+]([O-])[O-].[Mg+2]` [magnesium nitrate], which “herbicidal effects on the weed plants” value (weeds growing in soil; in vivo) is on record?
A: The value was “has herbicidal effects”.
